Measurements taken from ChEMBL document CHEMBL3286145, “Evaluation of the antiprion activity of 6-aminophenanthridines and related heterocycles” (Eur J Med Chem, 2014).

test: Ex vivo antiprion activity against sheep 127S scrapie prion protein infected in mouse MovS6 cells assessed as PK digestion resistant-PrPSc accumulation after 6 days by immunoblot analysis; assay type: cell-based; conditions: Ovis aries, MovS6, 144 h

Row | Structure (SMILES) | IC50 [µM]
1 | Nc1nc2ccccc2c2ccccc12 | < 5
2 | Nc1nc2ccccc2c2cccc(F)c12 | > 20
3 | Nc1nc2ccccc2c2ccc(F)cc12 | 15
4 | Nc1nc2ccccc2c2ccc([N+](=O)[O-])cc12 | 20
5 | Nc1nc2ccccc2c2cc([N+](=O)[O-])ccc12 | < 5
6 | Nc1cccc2c1c(N)nc1ccccc12 | 30
7 | Nc1nc2ccccc2c2cc(F)ccc12 | 5
8 | Nc1nc2ccccc2c2ccc(C(F)(F)F)cc12 | 10
9 | COc1cc(OC)c2nc(N)c3ccccc3c2c1 | < 1.8
10 | [N-]=[N+]=Nc1ccc2c(c1)c(N)nc1ccccc12 | 10
11 | Nc1nc2ccccc2c2c1CC=CC2 | 1.8
12 | Nc1nc2ccccc2c2c1CCCC2 | < 5
